Test results reported in patent publication US6855730B2, “3-methylidenyl-2-indolinone modulators of protein kinase” (Sugen, Inc., priority 1998, dated 2005).
pIC50: −log10 of the molar value.

Columns and labels:
Format in all cases: cell-based
[1] = target: T1, chimeric receptor containing the EGFR extracellular domain and intracellular HER2 kinase domain (Homo sapiens, UniProt P04626); test: EGF Receptor-HER2 chimeric receptor assay in whole cells (ELISA); settings: read-out: HER-2 kinase IC50
T1 construct: fused on or other part: EGFR ectodomain + HER2 intracellular part, ATP-site indolinones: HER2's kinase
T1 sequence (P04626 720-1255 limits assumed, change not shown): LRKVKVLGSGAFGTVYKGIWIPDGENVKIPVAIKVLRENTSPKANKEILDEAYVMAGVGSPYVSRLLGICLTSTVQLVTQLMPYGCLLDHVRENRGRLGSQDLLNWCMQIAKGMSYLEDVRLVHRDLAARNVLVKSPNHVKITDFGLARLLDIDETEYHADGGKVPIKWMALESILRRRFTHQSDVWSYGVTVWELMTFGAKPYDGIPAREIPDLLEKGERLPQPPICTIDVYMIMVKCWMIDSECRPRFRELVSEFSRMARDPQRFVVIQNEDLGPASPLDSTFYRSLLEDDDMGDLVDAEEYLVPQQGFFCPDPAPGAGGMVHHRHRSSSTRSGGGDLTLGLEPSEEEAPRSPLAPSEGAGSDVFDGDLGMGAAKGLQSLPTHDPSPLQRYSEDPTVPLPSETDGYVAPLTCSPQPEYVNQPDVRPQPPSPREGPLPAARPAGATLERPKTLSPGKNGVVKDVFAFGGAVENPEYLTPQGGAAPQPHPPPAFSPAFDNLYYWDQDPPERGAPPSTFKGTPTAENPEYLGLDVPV
How it was run: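 NIH3T3 cells overexpressing EGFR-extracellular/HER2-kinase chimera, seeded in 0.5% serum for ~40 h, were pretreated with compound (1% final DMSO) 2 h at 37 °C, then stimulated with 100 nM EGF for 5 min. Lysates captured on anti-EGFR plates; phosphotyrosine detected by anti-Ptyr/HRP ELISA at 410 nm as percent inhibition.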

A431 cells = test: A431 growth assay (2% FBS); settings: Homo sapiens, A-431, read-out: A431 growth (2% FBS) IC50
SKOV3 cells = test: SKOV3 growth assay (2% FBS); settings: Homo sapiens, SK-OV-3, read-out: SKOV3 growth (2% FBS) IC50

Row | pIC50 [1] | pIC50 (A431 cells) | pIC50 (SKOV3 cells) | SMILES
1 | 4.21 |  |  | CCOC(=O)c1c(C)[nH]c(/C=C2\C(=O)Nc3ccc(Br)cc32)c1CCC(=O)O [Compound 114, 5-(5-Bromo-2-oxo-1,2-dihydroindol-3-ylidenemethyl)-4-(2-carboxyethyl)-2-methyl-1H-pyrrole-3-carboxylic acid ethyl ester]
2 | 5.22 |  |  | Cc1cc(CCC(=O)O)c(/C=C2\C(=O)Nc3ccc(Br)cc32)[nH]1 [Compound 116, 3-[2-(5-Bromo-2-oxo-1,2-dihydroindol-3-ylidenemethyl)-5-methyl-1H-pyrrol-3-yl]-propionic acid]
3 | 4.86 | 5.27 | 5.26 | COc1c(C(C)C)cc(/C=C2/C(=O)Nc3ccccc32)cc1C(C)C [Example 1, 3-(3,5-Diisopropyl-4-methoxybenzylidene)-1,3-dihydroindol-2-one]
4 | 4.86 | 5.35 | 5.32 | COc1c(C(C)C)cc(/C=C2/C(=O)Nc3ccc(Cl)cc32)cc1C(C)C [Example 2, 5-Chloro-3-(3,5-diisopropyl-4-methoxybenzylidene)-1,3-dihydroindol-2-one]
